Reference: patent US8741951B2, “Non-steroidal compounds for androgen receptor modulation” (CNR—Consiglio Nazionale delle Ricerche, priority 2009, dated 2014)
“Also recorded” adds a separate entry of the source. Read-outs that look alike come from different tables or passages of the source.

How the values were obtained:
LNCaP-AR cells = assay: SRB in vitro chemosensitivity assay, LNCaP-AR; format: cell-based; conditions: for GI50: Homo sapiens, LNCaP/AR; for GI50 / cytotoxic effect (cytostatic / cytocidal), in words: 144 h; for LC50: LNCaP-AR cells, 144 h exposure; for LC50 / cytotoxic effect (cytostatic / cytocidal), in words: up to 20 μM; for cytotoxic effect (cytostatic / cytocidal), in words: LNCaP-AR
Procedure: (§1) The cell lines were maintained as a monolayer at 37° C. and subcultured weekly. Culture medium was composed of RPMI 1640 supplemented with 10% fetal calf serum and 1% glutamine (Mascia Brunelli s.p.a., Milan, Italy). Cells were used in the exponential growth phase in all the experiments.
(§2) Compounds were dissolved in acetone or DMSO (AITES) ([…]) and stored at −20° C. The cell culture containing acetone at the highest concentration was used as the control.
(§3) Sulforhodamine B (SRB) assay was used according to the method by Skehan et al. (JNCI, 1990). Briefly, cells were collected by trypsinization, counted and plated at a density of 5,000 cells/well in 96-well flat-bottomed microtiter plates (100 μl of cell suspension/well). In the chemosensitivity assay, experiments were run in octuplicate, and each experiment was repeated three times. The optical density (OD) of cells was determined at a wavelength of 490 nm by a colorimetric plate reader.
(§4) If ODtreated is above ODzero, treatment has induced a cytostatic effect, whereas if ODtreated is below ODzero, cell killing has occurred. The ODzero depicts the cell number at the moment of drug addition, the ODcontrol reflects the cell number in untreated wells and the ODtreated reflects the cell number in treated wells on the day of the assay.
(§5) FIGS. 2-11 show the cytotoxic activity of the derivative compounds of the invention on the LNCaP and LNCaP-AR cell lines. The authors examined the antitumour activity of the compounds for which the synthesis is described above, in the hormone-sensitive prostate cancer cell line LNCaP and in its derivative cell line LNCaP-AR, expressing high level of AR and with hormone refractory prostate cancer (HRPC) features. The novel compounds were tested at the increasing concentrations of […], 0.2, 2.0, and 20.0 μM. The highest dose used was chosen on the basis of the clinically achievable peak plasma concentration reported in the literature for bicalutamide (Cockshott I D. Clin Pharmacokinet. 2004; 43(13): 855-78). After 144-hr exposure time the cytotoxic effect of the molecules was calculated according to the method of Monks et al. (Monks A, Scudiero D, Skehan P, et al. Feasibility of a high-flux anticancer drug screen using a diverse panel of cultured human tumor cell lines. J Natl Cancer Inst. 1991; 83: 757-66.)

LNCaP cells = assay: SRB in vitro chemosensitivity assay, LNCaP; format: cell-based
Procedure: as §1, §2, §3, §4, §5

[1] = target: T1, human androgen receptor (hAR) (Homo sapiens, UniProt P10275); assay: hAR transactivation assay (ARE-luc) in Cos-7 cells; format: cell-based; conditions: for inhibition of R1881-induced AR transcriptional activation (antagonistic activity), in words: compound 10 μM with 10 nM R1881; for agonistic activity on AR transcription, in words: compound alone, 10 nM to 1 μM or 10 μM
T1 construct: expressed in transfected cells; host or cells: Cos-7
T1 sequence (P10275 1-920): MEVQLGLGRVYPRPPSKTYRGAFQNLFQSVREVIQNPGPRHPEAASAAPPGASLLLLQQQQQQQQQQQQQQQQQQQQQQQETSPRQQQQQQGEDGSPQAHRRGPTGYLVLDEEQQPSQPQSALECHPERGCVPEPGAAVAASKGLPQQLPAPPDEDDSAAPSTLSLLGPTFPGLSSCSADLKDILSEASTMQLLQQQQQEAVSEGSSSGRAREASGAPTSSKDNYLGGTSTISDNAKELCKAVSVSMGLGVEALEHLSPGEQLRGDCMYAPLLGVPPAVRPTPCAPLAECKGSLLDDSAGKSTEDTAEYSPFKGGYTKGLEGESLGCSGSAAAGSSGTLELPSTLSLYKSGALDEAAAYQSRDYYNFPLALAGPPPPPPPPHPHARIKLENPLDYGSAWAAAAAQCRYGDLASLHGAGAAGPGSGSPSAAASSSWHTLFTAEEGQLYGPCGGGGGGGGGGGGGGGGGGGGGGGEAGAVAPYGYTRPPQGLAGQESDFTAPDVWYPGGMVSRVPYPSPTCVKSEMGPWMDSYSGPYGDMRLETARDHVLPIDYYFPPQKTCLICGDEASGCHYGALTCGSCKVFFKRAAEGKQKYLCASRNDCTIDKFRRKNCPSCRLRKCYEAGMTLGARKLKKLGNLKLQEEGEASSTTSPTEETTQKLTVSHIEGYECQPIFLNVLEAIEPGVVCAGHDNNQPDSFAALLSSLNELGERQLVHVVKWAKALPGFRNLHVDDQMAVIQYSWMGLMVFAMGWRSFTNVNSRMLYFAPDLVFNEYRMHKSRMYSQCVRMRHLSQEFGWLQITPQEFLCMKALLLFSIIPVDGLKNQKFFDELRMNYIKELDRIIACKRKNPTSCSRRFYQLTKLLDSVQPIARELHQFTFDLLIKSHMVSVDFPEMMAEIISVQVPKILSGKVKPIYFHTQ
Text: The cDNA coding hAR was cloned into the pSG5 expression vector as reported previously [Chang, C. S., J. Kokontis, and S. T. Liao 1988 Molecular cloning of human and rat complementary DNA encoding androgen receptors Science 240:324-326].
The 3416 construct (ARE-Luc), containing four copies of the wild-type slp-HRE2 (5′-TGGTCAgccAGTTCT-3′) was cloned in the NheI site in pTK-TATA-Luc [Verrijdt, G., E. Schoenmakers, A. Haelens, B. Peeters, G. Verhoeven, W. Rombauts, and F. Claessens 2000 Change of specificity mutations in androgen selective enhancers J. Biol. Chem. 275:12298-12305].
For androgen-stimulated transcriptional analysis, 32×10^4 Cos-7 cells were plated in phenol red-free DMEM containing 5% charcoal-stripped serum. After 48 h, the cells were transfected by Superfect (Qiagen) with 0.3 μg of 3416-pTK-TATA-Luc construct, together with 1.5 μg of either pSG5-empty plasmid or pSG5-hAR expressing plasmid. […] When indicated, the synthetic compounds were added alone to the cell medium. […] It was dissolved in 0.001% (final concentration) ethanol. Control cells were treated with the vehicle alone. Lysates were prepared and the luciferase activity was measured using a luciferase assay system (Promega). The results were corrected using CH110-expressed beta-galactosidase activity (Amersham Biosciences) and luciferase activity was expressed as fold induction. Results were obtained from two or three different experiments, each performed in duplicate. Mean and SEM are shown.

DU145 cell line = assay: SRB cytotoxicity, DU145; format: cell-based, human; conditions: DU145 (no AR), 144 h, up to 20 μM
Procedure: (§6) FIGS. 16-25: cytotoxic effect of compounds (R)-XXIII-2, (R)-XXIII-3, (R)-XXIII-4, (R)-XXIII-5, (R)-XXIII-6, (R)-XXIII-7, (R)-XXIII-8, (R)-XXIII-9, (R)-XXIII-10, (R)-XXIV-9 on PC-3 and DU-145 cell lines at different concentration (0.02, 0.2, 2, 20 μM) after 144 h exposure. On the x-axis is reported the concentration, while on the y-axis is reported the inhibition of the net growth (% net growth).
as §3, §4

PC-3 cell line = assay: SRB cytotoxicity, PC-3; format: cell-based, human; conditions: PC-3 (no AR), 144 h, up to 20 μM
Procedure: as §6, §3, §4

[2] = system: human hepatoblastoma cell line HepG2; assay: Cytotoxic activity on HepG2 (hepato-toxicity); format: cell-based; conditions: HepG2, up to highest concentration tested
Procedure: as §3, §4
FIG. 27-36 show the cytotoxic activity of the drugs on the human hepatoblastoma cell line HepG2. The authors evaluated in vitro the potential hepato-toxicity of some of the novel compounds on HepG2 cell line, a human hepatoblastoma cell line that retains the specialized function of normal hepatocytes [Knowles B B, Howe C C, Aden D P. Human hepatocellular carcinoma cell lines secretes the major plasma proteins and hepatitis B surface antigen. Science 1980, 209:497-499; Aden D P, Vogel A, Plortkin S, Damjanov I, Knowles B B. Controlled synthesis of HBS Ag in a differentiated human liver carcinoma-derived cell line. Nature, 1979, 282:615-616].

[3] = LNCaP cells, 144 h exposure, up to 20 μM

N#Cc1ccc(NC(=O)[C@](O)(Cc2ccc(C(F)(F)F)cc2)CS(=O)(=O)c2ccc(F)cc2)cc1C(F)(F)F [(R)-XXIII-5]
GI50 (LNCaP-AR cells): 1.9 µM | LC50 (LNCaP-AR cells): n.r. | cytotoxic effect (cytostatic / cytocidal), in words (LNCaP-AR cells): cell killing activity | GI50 (LNCaP cells; Homo sapiens, LNCaP, 144 h): 2 µM | LC50 (LNCaP cells; Homo sapiens, LNCaP, 144 h, read-out: LC50, LNCaP cells, 144 h exposure, up to 20 μM): 16.2 to 20 µM | cytotoxic effect (cytostatic / cytocidal), in words (LNCaP cells; LNCaP, 144 h, up to 20 μM): cell killing activity | LC50 (LNCaP cells; read-out: LC50, LNCaP cells, 144 h exposure, up to 20 μM): 16.2 µM | inhibition of R1881-induced AR transcriptional activation (antagonistic activity), in words [1]: A more robust inhibition | agonistic activity on AR transcription, in words [1]: do not exhibit agonistic activity | cytotoxic activity, in words (DU145 cell line; listed as (R)-XIII-5): negligible cytotoxic activity; also recorded: reduced cytotoxic propriety | cytotoxic activity, in words (PC-3 cell line; listed as (R)-XIII-5): negligible cytotoxic activity; also recorded: reduced cytotoxic propriety | hepato-toxicity, in words [2]: did not display toxicity

N#Cc1ccc(NC(=O)[C@](O)(Cc2ccccc2)CS(=O)(=O)c2ccc(F)cc2)cc1C(F)(F)F [(R)-XXIII-3]
GI50 (LNCaP-AR cells): 6.2 µM | LC50 (LNCaP-AR cells): n.r. | cytotoxic effect (cytostatic / cytocidal), in words (LNCaP-AR cells): suppress completely the cell growth | GI50 (LNCaP cells; Homo sapiens, LNCaP, 144 h): 1.8 µM | LC50 (LNCaP cells; [3]): n.r. | cytotoxic effect (cytostatic / cytocidal), in words (LNCaP cells; LNCaP, 144 h, up to 20 μM): suppress completely the cell growth | inhibition of R1881-induced AR transcriptional activation (antagonistic activity), in words [1]: A more robust inhibition | agonistic activity on AR transcription, in words [1]: do not exhibit agonistic activity | cytotoxic activity, in words (DU145 cell line): negligible cytotoxic activity | cytotoxic activity, in words (PC-3 cell line): negligible cytotoxic activity | hepato-toxicity, in words [2]: did not display toxicity

N#Cc1ccc(NC(=O)[C@@](O)(CS(=O)(=O)c2ccc(F)cc2)c2ccccc2)cc1C(F)(F)F [(R)-XXIII-8]
GI50 (LNCaP-AR cells): 11.6 µM | LC50 (LNCaP-AR cells): n.r. | cytotoxic effect (cytostatic / cytocidal), in words (LNCaP-AR cells): suppress completely the cell growth | GI50 (LNCaP cells; Homo sapiens, LNCaP, 144 h): 11.8 µM | LC50 (LNCaP cells; [3]): n.r. | cytotoxic effect (cytostatic / cytocidal), in words (LNCaP cells; LNCaP, 144 h, up to 20 μM): suppress completely the cell growth | agonistic activity on AR transcription, in words [1]: does not increase the transcriptional activity of AR | cytotoxic activity, in words (DU145 cell line): negligible cytotoxic activity | cytotoxic activity, in words (PC-3 cell line): negligible cytotoxic activity | hepato-toxicity, in words [2]: did not display toxicity
